Values after ≈ are worked out from the molar mass of the structure shown. Where two headings read alike, the source gives them in different places.
How the values were obtained:
[1] = test system: HSV-2 MS in HEK293-RyR1 cells; assay: HSV-2 cytopathic effect (CPE) inhibition assay, crystal violet staining; format: cell-based, Herpes Simplex Virus 2, strain MS; details: for IC50: Human alphaherpesvirus 2, 72 h, read-out: IC50, CPE inhibition
Protocol: HSV-2 infection was established in HEK293-RyR1 cells by testing three different multiplicities of infection (MOI) as part of the development of the CPE inhibition assay. An inhibitor of HSV-2 was incubated with cells and subsequently infected with HSV-2 at three different MOIs. Cells-only and virus-only controls were included. Cells were observed daily to monitor CPE progression, and the incubation was allowed to continue until sufficient CPE of 60-80% is observed in the virus-only controls. CPE was quantified via crystal violet staining and results given as % inhibition and IC50 values, 50% of the maximum inhibitory dosage of the test article.
The virus was Herpes Simplex Virus 2, strain MS, lot 7172020, at MOI of 0.01 (ATCC, Catalog #VR-540). HEK293-RyR1 cell line was obtained from Kerafast (Cat. #EUR301). Growth medium was DMEM (High Glucose) supplemented with 10% FBS, 2 mM L-Glutamine, 1% Pen/Strep, 100 µg/ml Hygromycin. Incubation medium was DMEM (High Glucose) supplemented with 2% FBS, 2 mM L-Glutamine, 1% Pen/Strep. Infection medium was DMEM (High Glucose) supplemented with 2 mM L-Glutamine, 1% Pen/Strep. Acyclovir (as a control HSV-2 MS inhibitor) was stored at cell culture grade water (Ultrapure DNAse/RNase free distilled water, Thermo Scientific Cat. 10977015) and tested at concentrations of 10, 3.2, 1.0, 0.32, 0.10, 0.032, 0.010, 0.0032 50, 25, 12.5, 6.25, 3.125, 1.5625, 0.78125, 0.3906 100, 50, 25, 12.5, 6.25, 3.125, 1.5625, 0.78125 mg/ml. Carbachol (a Calcium agonist), obtained from Fisher Scientific (ASL0667403) was stored in cell culture-grade water and tested at concentrations of 333, 166.65, 83.325, 41.6625 mg/ml. […]
HSV-2 MS was prepared at the specific MOI in infection medium and added to the acyclovir/TA-containing wells in a dilution block. […] Plates were monitored daily to observe CPE levels. […]
After one hour, plates were washed with tap water and blotted on absorbent paper. Plates were allowed to air dry, and the absorbance of each well was read at 570 nm with a plate reader.
Absorbance values were exported into Excel. […]

[2] = test system: HSV-2 mediated calcium flux in HEK293-RyR1 cells; assay: Calcium flux assay with Fluo-4 Direct Calcium Assay Kit; format: cell-based; details: for RFU drop in calcium flux: FIG. 6A-6B legend; for maximum average ΔRFU: treated cells minus cells only, HSV-2 MOI 0.01
Protocol: The Fluo-4 Direct™ Calcium Assay Kit was be used to assess calcium response in RyR1-expressing cells treated with a calcium agonist (Carbachol) or infected with HSV-2 MS at an MOI of 0.01. For the virus-infected cells, procedures as described above were followed but with a 96-well black plate.
Cells were seeded in 100 μL of incubation medium in black 96-well plates coated with poly-D-lysine at 5.0E+04 cells per well and incubated at 37° C. with 5% CO2 overnight (16-20 hours). […]
A 2× Fluo-4 Direct™ calcium reagent loading solution with 5 mM probenecid was prepared by adding 10 mL of Fluo-4 Direct™ calcium assay buffer and 200 μL of the 250 mM stock solution of probenecid to one bottle of 2× Fluo-4 Direct™ calcium reagent (labeled Component A). The solution was vortexed and allowed to sit for five minutes for complete dissolution. […]
The fluorescence of each well was measured directly after the addition of carbachol with the Biotek Cytation 5 plate reader using the fluorescence reader settings for excitation at 494/10 nm and emission at 520/10 nm. The fluorescence measurements in relative fluorescence units (RFU) were recorded and exported to Excel.
ΔRFU is given in relative fluorescent units (RFU) as the maximum response (TA or virus treated cells) minus the minimum response (cells only).
On day 3, a 250 mM stock solution of probenecid was prepared by adding 1 mL of Fluo-4 Direct™ calcium assay buffer (labeled Component C) to each 77 mg vial of water-soluble probenecid. The vial was vortexed until dissolved.
Plated cells were removed from the incubator. TA/virus dilutions were removed and 100 μL of incubation medium was added to the plate. Then, 100 μL of 2× Fluo-4 Direct™ calcium reagent loading solution was added. Plates were incubated for 30 minutes at 37° C. with 5% CO2 followed by 30 minutes at room temperature. Carbachol dilutions (100 μL) were added to the plate that contains only cells as a positive control.

HSV-2 genital herpes = assay: Treatment of HSV-2 genital herpes in human subjects; format: in vivo
From the text: An otherwise healthy person presented pain with urination and a solitary sore on the vulva. It was initially unclear by visible inspection if the solitary sore was herpes or a shave injury. […] The patient reported Pain 7/10, and worse with urination. […] The patient was given the formulation to use at home (two applications per day). The patient was also offered a prescription for 1 gram of Valtrex to be taken twice a day.
As a comparison, before the date of the patient's treatment, typical otherwise healthy female patients of this same age presenting similar herpes sores are given a prescription for Valtrex and take up to two weeks to resolve their herpes ulcers.
A second human subject with a long history of HSV-2 who has previously taken oral Valtrex™ (Valacyclovir) to resolve past HSV-2 ulcerations was administered a representative pharmaceutical composition of this disclosure as described in Example 1. The subject has previously resolved HSV-2 ulcerations in 5-7 days after outbreak when administered Valtrex. The subject was administered the representative tetracaine composition twice a day for two days at which point the subject's lesions were completely re-epithelialized and the pain was reduced to 0/10. Before treatment, the subject reported pain at 5/10 at max. […]

[3] = base form versus salt form (Miller et al. 1993); cited from earlier work
[4] = at the highest concentration tested

| SMILES | IC50 ([1]; HSV-2 MOI 0.01, 5.0×10^4 HEK293-RyR1 cells per well, day 3) | RFU drop in calcium flux [2] | maximum average ΔRFU [2, 4] | time to resolve HSV-2 ulcerations after outbreak (HSV-2 genital herpes; person, past outbreaks, oral) | time to resolve herpes ulcers (HSV-2 genital herpes; typical otherwise healthy female patients of same age with similar herpes sores, prescription) | flux through the dermis [3] | IC50 [1] | cell morphology of treated cells ([1]; compared to cells only, virus-only and Acyclovir-treated cells, day 3 (FIG. 5D)) | fold higher average ΔRFU than Acyclovir [2, 4] |
| --- | --- | --- | --- | --- | --- | --- | --- | --- | --- |
| Nc1nc2c(ncn2COCCO)c(=O)[nH]1 [Acyclovir] | 0.0457 mg/mL (≈ 0.203 mM) | about 2000 RFU | −1801.6 RFU |  |  |  |  |  |  |
| CC(C)[C@H](N)C(=O)OCCOCn1cnc2c(=O)[nH]c(N)nc21 [Valtrex] |  |  |  | 5 to 7 days | up to two |  |  |  |  |
| CCCCNc1ccc(C(=O)OCCN(C)C)cc1 [Tetracaine, 2-(dimethylamino)ethyl 4-(butylamino)benzoate] |  | 4000 RFU | −6527.9 RFU |  |  | fluxes more readily than the salt form | 94.6 mg/mL (≈ 358 mM) | Abnormal cell morphology | 3.6 fold |

Source: patent US20250319055A1, “COMPOSITIONS FOR TREATING GENITAL HERPES AND METHODS OF THEIR USE” (priority 2024, published 2025)
